Source: US20210038515A1 (Azurity Pharmaceuticals, Inc., priority 2014, published 2021)

System: Clostridium difficile
Assay: Agar dilution MIC of vancomycin preparations (Sigma, Cutis), diluent, Na benzoate and Na citrate
Format: cell-based
Settings: for MIC, AV (average): average of triplicate; for MIC, VAN-1: replicate 1; for MIC, VAN-2: replicate 2; for MIC, VAN-3: replicate 3
Experimental: Introduction: The purpose of the study was to compare the MICs obtained with the formulation of vancomycin HCL of the invention (Cutis) to formulations obtained using a vancomycin HCL reference standard powder obtained from Sigma. The Example also involves the analysis of a solution or diluent to determine if it has antimicrobial activity at the concentrations present in the agar dilution test.
The C. difficile were tested by agar dilution according to the procedures in the Clinical and Laboratory Standards Institute. 2012. Methods for antimicrobial susceptibility testing of anaerobic bacteria; approved standard-seventh edition.
Other anaerobic organisms included clinical isolates of Bifidobacterium adolescentis and Bacteroides fragilis. Clostridium difficile ATCC 700057 was included as a quality control strain.
The C. difficile isolates were recovered from patients with CDI during the past two years and stored at −70° C. in 20% skim milk. Ribotyping was performed by another reference laboratory. The strains were taken from the freezer and subcultured at least twice to ensure purity and good growth.
On the day of testing, they were suspended in Brucella broth to the turbidity of the 0.5 McFarland standard for testing.
Stock solution of the Sigma vancomycin was prepared in water and stored at −70° C. On the day of testing, it was thawed and further diluted in water to obtain the desired range of 16-0.125 μg/ml. The Cutis vancomycin (25 mg/ml) was reconstituted on the day of testing and further diluted for a final range of 16-0.125 μg/ml in the test. The antimicrobials were added to molten Brucella agar supplemented with vitamin K and hemin to prepare the plates. Drug-free growth controls were included for testing before and after each set of plates. All testing was done in triplicate.
The organisms were pipetted into the wells of the Steers replicator head and applied to the plates with the multi-pronged replicator. The final concentration of organisms was ˜10^5 CFU/spot.
The plates were incubated in the anaerobic chamber incubator for 44 h and examined for growth.
The Cutis diluent comprises: water, about 0.12% (w/v) citric acid (anhydrous), 0.2% (w/v) sucralose, about 0.05% (w/v) artificial grape flavor, 0.1% (w/v) sodium benzoate, about 0.0002% (w/v) D&C Yellow No. 10 and about 0.000038% (w/v) FD&C Red No. 40.

[1] = ATCC 700057 quality control strain, first set (r41)
[2] = ATCC 700057 quality control strain, second set (r74)

CN[C@H](CC(C)C)C(=O)N[C@H]1C(=O)N[C@@H](CC(N)=O)C(=O)N[C@H]2C(=O)N[C@H]3C(=O)N[C@H](C(=O)N[C@H](C(=O)O)c4cc(O)cc(O)c4-c4cc3ccc4O)[C@H](O)c3ccc(c(Cl)c3)Oc3cc2cc(c3O[C@@H]2O[C@H](CO)[C@@H](O)[C@H](O)[C@H]2O[C@H]2C[C@](C)(N)[C@H](O)[C@H](C)O2)Oc2ccc(cc2Cl)[C@H]1O.Cl [Sigma]
1.7 µg/mL: MIC, AV (average) (RMA 24510, ribotype 027) | MIC, AV (average) (RMA 24519, ribotype 027) | MIC, AV (average) (RMA 24541, ribotype 020) | MIC, AV (average) (RMA 24560, ribotype 078)
1.3 µg/mL: MIC, AV (average) (RMA 24543, ribotype 020)
2.7 µg/mL: MIC, AV (average) (RMA 24575, ribotype 078)
4 µg/mL: MIC, VAN-2 (RMA 24575, ribotype 078) | MIC, VAN-1 (RMA 24594, ribotype 106) | MIC, VAN-3 (RMA 24594, ribotype 106) | MIC, AV (average) (RMA 24678, ribotype 012) | MIC, VAN-1 (RMA 24678, ribotype 012) | MIC, VAN-2 (RMA 24678, ribotype 012) | MIC, VAN-3 (RMA 24678, ribotype 012)
3.3 µg/mL: MIC, AV (average) (RMA 24594, ribotype 106)
1 µg/mL: MIC, VAN-3 (RMA 24510, ribotype 027) | MIC, VAN-3 (RMA 24519, ribotype 027) | MIC, VAN-1 (RMA 24541, ribotype 020) | MIC, VAN-1 (RMA 24543, ribotype 020) | MIC, VAN-2 (RMA 24543, ribotype 020) | MIC, AV (average) (RMA 24547, ribotype 014) | MIC, VAN-1 (RMA 24547, ribotype 014) | MIC, VAN-2 (RMA 24547, ribotype 014) | MIC, VAN-3 (RMA 24547, ribotype 014) | MIC, VAN-3 (RMA 24560, ribotype 078)
2 µg/mL: MIC, AV (average) [1] | MIC, VAN-1 [1] | MIC, VAN-2 [1] | MIC, VAN-3 [1] | MIC, AV (average) [2] | MIC, VAN-1 [2] | MIC, VAN-2 [2] | MIC, VAN-3 [2] | MIC, AV (average) (RMA 24504, ribotype 027) | MIC, VAN-1 (RMA 24504, ribotype 027) | MIC, VAN-2 (RMA 24504, ribotype 027) | MIC, VAN-3 (RMA 24504, ribotype 027) | MIC, VAN-1 (RMA 24510, ribotype 027) | MIC, VAN-2 (RMA 24510, ribotype 027) | MIC, VAN-1 (RMA 24519, ribotype 027) | MIC, VAN-2 (RMA 24519, ribotype 027) | MIC, AV (average) (RMA 24527, ribotype 014) | MIC, VAN-1 (RMA 24527, ribotype 014) | MIC, VAN-2 (RMA 24527, ribotype 014) | MIC, VAN-3 (RMA 24527, ribotype 014) | MIC, AV (average) (RMA 24529, ribotype 014) | MIC, VAN-1 (RMA 24529, ribotype 014) | MIC, VAN-2 (RMA 24529, ribotype 014) | MIC, VAN-3 (RMA 24529, ribotype 014) | MIC, VAN-2 (RMA 24541, ribotype 020) | MIC, VAN-3 (RMA 24541, ribotype 020) | MIC, VAN-3 (RMA 24543, ribotype 020) | MIC, VAN-1 (RMA 24560, ribotype 078) | MIC, VAN-2 (RMA 24560, ribotype 078) | MIC, AV (average) (RMA 24561, ribotype 078) | MIC, VAN-1 (RMA 24561, ribotype 078) | MIC, VAN-2 (RMA 24561, ribotype 078) | MIC, VAN-3 (RMA 24561, ribotype 078) | MIC, AV (average) (RMA 24567, ribotype 020) | MIC, VAN-1 (RMA 24567, ribotype 020) | MIC, VAN-2 (RMA 24567, ribotype 020) | MIC, VAN-3 (RMA 24567, ribotype 020) | MIC, VAN-1 (RMA 24575, ribotype 078) | MIC, VAN-3 (RMA 24575, ribotype 078) | MIC, VAN-2 (RMA 24594, ribotype 106) | MIC, AV (average) (RMA 24601, ribotype 106) | MIC, VAN-1 (RMA 24601, ribotype 106) | MIC, VAN-2 (RMA 24601, ribotype 106) | MIC, VAN-3 (RMA 24601, ribotype 106) | MIC, AV (average) (RMA 24605, ribotype 002) | MIC, VAN-1 (RMA 24605, ribotype 002) | MIC, VAN-2 (RMA 24605, ribotype 002) | MIC, VAN-3 (RMA 24605, ribotype 002) | MIC, AV (average) (RMA 24607, ribotype 106) | MIC, VAN-1 (RMA 24607, ribotype 106) | MIC, VAN-2 (RMA 24607, ribotype 106) | MIC, VAN-3 (RMA 24607, ribotype 106) | MIC, AV (average) (RMA 24608, ribotype 002) | MIC, VAN-1 (RMA 24608, ribotype 002) | MIC, VAN-2 (RMA 24608, ribotype 002) | MIC, VAN-3 (RMA 24608, ribotype 002) | MIC, AV (average) (RMA 24615, ribotype 005) | MIC, VAN-1 (RMA 24615, ribotype 005) | MIC, VAN-2 (RMA 24615, ribotype 005) | MIC, VAN-3 (RMA 24615, ribotype 005) | MIC, AV (average) (RMA 24628, ribotype 012) | MIC, VAN-1 (RMA 24628, ribotype 012) | MIC, VAN-2 (RMA 24628, ribotype 012) | MIC, VAN-3 (RMA 24628, ribotype 012) | MIC, AV (average) (RMA 24641, ribotype 001/072) | MIC, VAN-1 (RMA 24641, ribotype 001/072) | MIC, VAN-2 (RMA 24641, ribotype 001/072) | MIC, VAN-3 (RMA 24641, ribotype 001/072) | MIC, AV (average) (RMA 24643, ribotype 001/072) | MIC, VAN-1 (RMA 24643, ribotype 001/072) | MIC, VAN-2 (RMA 24643, ribotype 001/072) | MIC, VAN-3 (RMA 24643, ribotype 001/072) | MIC, AV (average) (RMA 24646, ribotype 001/072) | MIC, VAN-1 (RMA 24646, ribotype 001/072) | MIC, VAN-2 (RMA 24646, ribotype 001/072) | MIC, VAN-3 (RMA 24646, ribotype 001/072) | MIC, AV (average) (RMA 24655, ribotype 005) | MIC, VAN-1 (RMA 24655, ribotype 005) | MIC, VAN-2 (RMA 24655, ribotype 005) | MIC, VAN-3 (RMA 24655, ribotype 005) | MIC, AV (average) (RMA 24683, ribotype 027) | MIC, VAN-1 (RMA 24683, ribotype 027) | MIC, VAN-2 (RMA 24683, ribotype 027) | MIC, VAN-3 (RMA 24683, ribotype 027)
